Columns and labels:
[1] = system: human umbilical vascular endothelial cells (HUVEC); assay: SAβG activity staining in senescent vascular endothelial cells; format: cell-based; settings: 4 days
Method: (§1) Each cell was treated in a serum-free culture solution containing 0.5 μM doxorubicin for 4 hours. After washing the cells with a serum-free culture solution, the cells were cultured for 4 days in a culture solution containing 10% FBS, and then cellular aging was confirmed by staining with senescence-associated beta galactosidase (SAβG). After dispensing 2×10^5 cells in a 100 mm culture dish, they were cultured in a 37° C., 5% CO2 incubator. When the cells grew to 80-90% in the culture dish, the cells were removed by treatment with trypsin-EDTA, and the number of cells was measured, and the cell population doubling time (PDT) was measured. By successively subculturing the cells in the same process as described above, replication aging was induced. PDT of young fibroblasts was 36 hours, PDT of replicative senescent fibroblasts was 12 days, PDT of young vascular endothelial cells was 24 hours, and PDT of replicative senescent vascular endothelial cells was 7 days. After each sample was dissolved in DMSO, young cells, replicative senescent cells, and premature senescent cells treated with doxorubicin were treated with 100 nM zotarolimus, 100 nM rapamycin, 100 nM ABT263, respectively. After incubation for 4 days in a 37° C., 5% CO2 incubator, the degree of cell growth was confirmed by CCK-8 analysis, the degree of cellular aging was confirmed by senescence-related beta-galactosidase (SAβG) staining, The cells were washed with 1× phosphate buffer solution, and fixed with a phosphate buffer solution containing 3.7% (v/v) paraformaldehyde. After adding 1 mg/ml 5-bromo-4-chloro-3-indolyl-6-D-galactoside, 40 mM citric acid-sodium phosphate (pH 6.0), 5 mM potassium ferricyanide, 5 mM potassium ferrocyanide, 150 mM NaCl, and 2 mM MgCl2 solution, it was reacted at 37° C. for 18 hours. It was stained with eosin as a control stain. Cells stained blue in the cytoplasm were identified using an optical microscope. […]

[2] = system: human umbilical vascular endothelial cells (HUVEC); assay: LDH activity in cell culture solution of vascular endothelial cells; format: cell-based; settings: young and replicative senescent HUVEC; 4 days
Method: Cytotoxicity against young and senescent cells was investigated with a lactate dehydrogenase (LDH) activity kit (Dojindo Molecular Technologies Inc.).
Young cells (1×10^3 cells/100 μl/well) or senescent cells (2×10^3 cells/100 μl/well) were dispensed into a 96-well plate, and then cultured overnight in a 37° C., 5% CO2 incubator. Zotarolimus and ABT263 were treated at each concentration, and then incubated for 4 days in a 37° C., 5% CO2 incubator.
After transferring the cell culture solution to a 1.5 ml tube, it was centrifuged at 4° C. and 12,000 rpm. 100 μl of the supernatant was dispensed into a 96-well plate, and 100 μl of the LDH measurement solution was added to each well, followed by reaction in a CO2 incubator for 30 minutes.
50 μl of the LDH reaction stop solution was added, and absorbance was measured at 490 nm using a microplate reader. The level of LDH activity was expressed as a relative value based on the absorbance of the control group treated with only DMSO.
In order to confirm whether the decrease in cell growth caused by zotarolimus as described above was due to cell death, LDH activity was investigated in the cell culture solution.

[3] = system: human tubular epithelial cell (HK2); assay: SAβG activity staining in premature senescent HK2 cells; format: cell-based; settings: premature senescent HK2 cells by doxorubicin; 100 nM, 4 days
Method: as §1, with “(SAβG).” for “(SAβG). After dispensing 2×10^5 cells in a 100 mm culture dish, they were cultured in a 37° C., 5% CO2 incubator. When the cells grew to 80-90% in the culture dish, the cells were removed by treatment with trypsin-EDTA, and the number of cells was measured, and the cell population doubling time (PDT) was measured. By successively subculturing the cells in the same process as described above, replication aging was induced. PDT of young fibroblasts was 36 hours, PDT of replicative senescent fibroblasts was 12 days, PDT of young vascular endothelial cells was 24 hours, and PDT of replicative senescent vascular endothelial cells was 7 days.”

[4] = system: peritoneal fibrosis induced by CHG; assay: Peritoneal fibrosis induced by chlorhexidine gluconate (CHG) in mice; format: in vivo, C57BL/6J mice; settings: i.p. at 2-day intervals from 9th day; vs DMSO group
Method: Animal experiments were conducted with the approval of the Animal Experimental Ethics Committee of Yeungnam University College of Medicine (YUMC-AEC2018-033). Peritoneal fibrosis mice experiments were performed using a model of peritoneal fibrosis induced by chlorhexidine gluconate (CHG) (Yoshio Y et al., Kidney international. 2004).
From the 9th day, 2.5 μl of 10 mM zotarolimus (Zota group) or 2.5 μl of DMSO (DMSO group) was diluted in 100 μl phosphate buffer solution and intraperitoneally injected at intervals of 2 days.
As a negative control (NT group), 100 μl of a 15% ethanol phosphate buffer solution was injected intraperitoneally instead of a 0.1% CHG solution. On the 20th day, the mice were sacrificed, the peritoneal tissue was excised, and the tissue was fixed in 4% paraformaldehyde solution.
The tissue fixed in 10% formalin solution was embedded with paraffin and cut into 4 μm to prepare a tissue sample. After removing paraffin from the tissue sample, hematoxylin-eosin staining, trichrome staining, and PAS staining were performed.
The degree of fibrosis was measured by analyzing the degree of collagen staining using the i-Solution™ software program (IMT Inc., Canada) after trichrome staining and the degree of cell senescence in tissue samples was investigated by staining lipofuscin with Sudan black B (Viegas M S, et al., European journal of histochemistry: EJH. 2007). […]

For `CO[C@H]1C[C@@H]2CC[C@@H](C)[C@@](O)(O2)C(=O)C(=O)N2CCCC[C@H]2C(=O)O[C@H]([C@H](C)C[C@@H]2CC[C@H](n3cnnn3)[C@H](OC)C2)CC(=O)[C@H](C)/C=C(\C)[C@@H](O)[C@@H](OC)C(=O)[C@H](C)C[C@H](C)/C=C/C=C/C=C/1C` [zotarolimus], the “SAβG activity staining compared with rapamycin” value ([1]; premature senescent HUVEC by doxorubicin, 100 nM each) was “significantly decreased than rapamycin”, the SAβG activity staining ([1]; premature senescent HUVEC by doxorubicin, 100 nM, vs DMSO-treated group, p<0.01) was “significantly decreased” and the SAβG activity ([1]; replicative senescent HUVEC, 100 nM, vs DMSO-treated group and rapamycin-treated group) was “significantly decreased”. The “LDH activity in the cell culture solution” value [2] was “no difference in LDH activity”, the SAβG staining [3] was “decreased” and the “degree of fibrosis (peritoneal)” value [4] was “decreased”. The “thickness of the peritoneal mesothelial cell layer” value [4] was “significantly reduced”.

Source: patent US20220023271A1, “COMPOSITION FOR PREVENTING OR TREATING CELLULAR SENESCENCE-RELATED DISEASES COMPRISING ZOTAROLIMUS AS ACTIVE INGREDIENT” (RESEARCH COOPERATION FOUNDATION OF YEUNGNAM UNIVERSITY, priority 2018, published 2022)
